Measured values reported in PMC5024129, “Adipokinetic hormones and their G protein-coupled receptors emerged in Lophotrochozoa” (Scientific Reports, 2016).
Square brackets hold non-standard residues; d marks the D form. Ends that are not written are not given here. Peptide text beside a SMILES is read from it. pGlu = O=C1CC[C@@H](C(=O)O)N1

Legend:
C. gigas AKHR1-A = C. gigas AKHR1-A (Magallana gigas, UniProt B1VCT5); test: Bioluminescence assay in CHO/G-16 cells stably expressing C. gigas AKHR1-A (apoaequorin, IP3/Ca2+ cascade); format: cell-based, Crassostrea gigas; details: 10^−6 M peptide, CHO/G-16/AKHR1-A cells, Fig. 5A, n = 3
C. gigas AKHR1-A, sequence (B1VCT5 entry or part of it): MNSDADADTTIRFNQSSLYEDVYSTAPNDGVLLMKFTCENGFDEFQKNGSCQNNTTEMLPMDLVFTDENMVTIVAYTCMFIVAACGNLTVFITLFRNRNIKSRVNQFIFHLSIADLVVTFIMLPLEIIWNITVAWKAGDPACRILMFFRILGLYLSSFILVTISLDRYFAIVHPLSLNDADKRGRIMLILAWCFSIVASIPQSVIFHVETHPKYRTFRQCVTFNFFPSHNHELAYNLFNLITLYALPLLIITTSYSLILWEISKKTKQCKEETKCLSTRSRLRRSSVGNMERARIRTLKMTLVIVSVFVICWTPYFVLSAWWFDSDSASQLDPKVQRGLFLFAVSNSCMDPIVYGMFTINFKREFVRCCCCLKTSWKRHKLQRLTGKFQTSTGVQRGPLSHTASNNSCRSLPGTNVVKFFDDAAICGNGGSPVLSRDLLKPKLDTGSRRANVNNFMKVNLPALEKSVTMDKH
From the text: (§1) We stably expressed all four cloned splice variants from C. gigas AKHR1 (Fig. 2) in Chinese Hamster Ovary (CHO) cells. These cells were also stably transfected with the promiscuous G protein, G-16, and transiently transfected with apoaequorin. An activation of the receptor by its ligand in these pretreated CHO cells would result in an IP3/Ca^2+ second messenger cascade, which could be measured as a bioluminescence signal.
(§2) CHO cells stably expressing the human G-protein 16 (CHO/G16) were maintained in DMEM/F-12 + GlutaMAX^TM (Life Technologies) medium with 200 μg/ml hygromycin B (Invitrogen), 5% fetal calf serum (FCS) (Life Technologies), 1% (v/v) glutaMAX (Life Technologies), 100 U/ml penicillin(Life Technologies), and 100 μg/ml streptomycin (Life Technologies). To express the AKH receptor, 5 × 10^4 CHO/G16 cells were transfected with 3 μg pIRES vector containing the AKH receptor insert using JetPEI® transfection reagent (Polyplus), while 3 μg empty pIRES vector was used as a control. All tested peptides were from Genemed Synthesis, Inc. and initially dissolved in demethylformamide (DMF) followed by dilution in PBS.

C. gigas AKHR1-D = test: Bioluminescence assay in CHO/G-16 cells expressing C. gigas AKHR1 splice variant D; format: cell-based, Crassostrea gigas
From the text: as §1, §2

C. gigas AKHR2 = test: Bioluminescence assay in CHO/G-16 cells expressing C. gigas AKHR2; format: cell-based, Crassostrea gigas
Procedure: as §2, with “This receptor, therefore, remains an orphan. CHO cells” for “CHO cells”, “in PBS. The purities of the peptides and peptide contents were determined by HPCL and mass spectrometry as supplied by Genemed Synthesis. The bioluminescence assay was performed as described earlier[9][30] using a Victor2 1420 Multilabel Counter (Perkin Elmer).” for “in PBS.”

C. gigas AKHR1-C = test: Bioluminescence assay in CHO/G-16 cells expressing C. gigas AKHR1 splice variant C; format: cell-based, Crassostrea gigas
From the text: as §1, §2

Aplysia californica = details: injection into the slug; cited from earlier work
From the text: Johnson et al.[34] have recently shown that an AKH is present in the sea slug Aplysia californica. […] These findings are difficult to reconcile with our above considerations, but our own considerations are, of course, only hypothetical.

For `CC(C)[C@H](NC(=O)[C@@H]1CCC(=O)N1)C(=O)N[C@@H](CO)C(=O)N[C@@H](Cc1ccccc1)C(=O)N[C@@H](CO)C(=O)N[C@H](C(=O)N[C@@H](CC(N)=O)C(=O)N[C@@H](Cc1c[nH]c2ccccc12)C(=O)NCC(=O)N[C@@H](CO)C(N)=O)[C@@H](C)O` [C. gigas AKH] ([pGlu]VSFSTNWGS-NH2), which “Bioluminescence response (activation) of AKHR1-A” value (C. gigas AKHR1-A) is on record?
The value was “can be activated”.

What about the “Activation of AKHR1 splice variant D” value (C. gigas AKHR1-D) of the same molecule?
Its value is “could not be activated”.

What about the “Activation of AKHR2” value (C. gigas AKHR2) of the same molecule?
Its value is “could not be activated”.

What about the “Activation of AKHR1 splice variant C” value (C. gigas AKHR1-C) of the same molecule?
The value was “could not be activated”.

With “Dm-CCAP: D. melanogaster crustacean cardioactive peptide (PFCNAFTGC; ends and bridges not checked; cysteine pairing not given here; UniProt Q9VCW0 52-60, looked up)” as the molecule, how does the “Bioluminescence response (activation) of AKHR1-A” value (C. gigas AKHR1-A) read?
The value was “not active”.

For “pQIHFSPDWGTamide [Aplysia californica AKH, molluscan true AKH of the sea slug]”, which Effect on defecation (Aplysia californica) is on record?
The Effect on defecation was “induce defecation”.

What about the Effect on feeding (Aplysia californica) of the same molecule?
The Effect on feeding was “reduce feeding”.

What about the “Influence on hemolymph glucose concentrations” value (Aplysia californica) of the same molecule?
The value was “no influence”.
